*1 amine or outer side, *2 acyl side, *3 side chain or, on linkers, in order; H or OH if unused. Where a SMILES comes first, the peptide text is derived from it. Bridges are numbered along the chain shown (N, C = ends). Roman numbers before positions name the chains, in order. Side-chain parts run from the residue outwards. [ ]: non-standard residue; d: D form. The star is where a group is joined. C20 diacid = O=C(O)CCCCCCCCCCCCCCCCCCC(=O)*; C18 diacid = O=C(O)CCCCCCCCCCCCCCCCC(=O)*; γGlu = O=C(O)[C@H](CCC(=O)[*:2])N[*:1]; Desaminohistidyl = O=C(CCc1c[nH]cn1)*; Ac4c = NC1(C(=O)O)CCC1; AEEA = NCCOCCOCC(=O)O; Aib = CC(C)(N)C(=O)O
Columns and labels:
human GLP-1 receptor [1] = molecular target: T1, human GLP-1 receptor (Homo sapiens, UniProt P43220); experiment: Assay (II)(a): GLP-1 receptor binding, [125I]GLP-1 displacement, SPA on BHK membranes; details: displacement of [125I]GLP-1, membranes with human GLP-1 receptor; read-out: IC50 GLP-1R
T1 construct: expressed in transfected cells; host or cells: membranes of BHK cells, parent line BHKTS13, clone FCW467-12A
T1 sequence (P43220 24-463): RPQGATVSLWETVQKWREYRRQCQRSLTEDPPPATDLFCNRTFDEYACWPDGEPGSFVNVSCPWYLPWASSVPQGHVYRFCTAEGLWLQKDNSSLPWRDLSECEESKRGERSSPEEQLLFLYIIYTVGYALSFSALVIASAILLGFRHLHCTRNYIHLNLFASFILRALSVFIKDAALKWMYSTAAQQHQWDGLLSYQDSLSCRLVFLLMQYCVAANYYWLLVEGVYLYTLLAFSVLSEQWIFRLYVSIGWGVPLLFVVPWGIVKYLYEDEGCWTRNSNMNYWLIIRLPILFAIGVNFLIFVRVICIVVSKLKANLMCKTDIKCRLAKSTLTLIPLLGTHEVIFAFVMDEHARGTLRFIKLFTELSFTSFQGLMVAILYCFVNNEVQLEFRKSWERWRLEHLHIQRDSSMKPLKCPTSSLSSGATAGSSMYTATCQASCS
Method in brief: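 Membranes from BHK cells expressing human GLP-1 receptor with WGA SPA beads, [125I]GLP-1(7-36)NH2 (480 pM added solution) and compound in HEPES pH 7.4 buffer with EGTA, MgCl2, Tween 20. Incubated 2 h at 30° C; SPA counts fitted by non-linear regression to IC50 in nM.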

human GLP-1 receptor [2] = molecular target: T1, human GLP-1 receptor; experiment: Assay (I)(a): GLP-1 receptor potency, CRE luciferase reporter gene assay in BHK cells; format: cell-based; details: BHK cells expressing human GLP-1 receptor, read-out: EC50 GLP-1R
Description: Assay (I): GLP-1 and Glucagon Receptor Potency The purpose of this example was to test the activity or potency, of the GLP-1 derivatives of the invention, in vitro. The in vitro potency is the measure of human GLP-1 receptor (GLP-1R) or glucagon receptor (glucagonR) activation, respectively, in a whole cell assay. In vitro potency was determined by measuring the cellular response of human GLP-1 or glucagon receptor activation, respectively, in a reporter gene assay. The assay was performed in a BHK cell line that stably expresses either the human GLP-1 receptor or the human glucagon receptor and comprises the DNA for the cAMP response element (CRE) coupled to a promoter and the gene for firefly luciferase (CRE luciferase). […] When assay incubation was completed, the luciferase substrate (luciferin) was added and the enzyme converted luciferin to oxyluciferin and produces bioluminescence. The luminescence was measured as the readout for the assay. (a) GLP-1 Receptor Activation The cells used in this assay (clone FCW467-12A/KZ10-1) were BHK cells with BHKTS13 as a parent cell line. The cells were derived from a clone (FCW467-12A) that expresses the human GLP-1 receptor and were established by further transfection with CRE luciferase to obtain the current clone. The cells were cultured at 5% CO2 in DMEM medium with 10% FBS, 1×GlutaMAX, 1 mg/ml G418, 240 nM MTX (methotrexate) and 1% pen/strep (penicillin/streptomycin). They were aliquoted and stored in liquid nitrogen. Before each assay, an aliquot was taken up and washed three times in PBS before being suspended at the desired concentration in assay medium. For 96-well plates the suspension was made to give a final concentration of 5×10EE3 cells/well. The following chemicals were used in the assay: Pluronic F-68 (10%) (Gibco 2404), Ovalbumin (Sigma A5503), DMEM w/o phenol red (Gibco 11880-028), 1 M Hepes (Gibco 15630), Glutamax 100× (Gibco 35050) and steadylite plus (PerkinElmer 6016757). Assay Medium consisted of DMEM w/o phenol red, 10 mM Hepes, 1×GlutaMAX, 2% Ovalbumin and 0.2% Pluronic F-68. Cell stocks were thawed in a 37° C. water bath. Cells were washed three times in PBS. The cells were counted and adjusted to 5×10EE3 cells/50 μl (1×10EE5 cells/ml) in Assay Medium. A 50 μl aliquot of cells was transferred to each well in the assay plate. Stocks of the test compounds and reference compounds were diluted to a concentration of […] in Assay Medium. Compounds were diluted 10-fold to give the following concentrations: 2×10EE-6 M, 2×10EE-7 M, 2×10EE-8 M; 2×10EE-9 M, 2×10EE-10 M, 2×10EE-11 M, 2×10EE-12 M and 2×10EE-13 M. For each compound a blank assay medium control was also included. A 50 μl aliquot of compound or blank was transferred from the dilution plate to the assay plate. Compounds were tested at the following final concentrations: 1×10EE-6 M, 1×10EE-7 M, 1×10EE-8 M; 1×10EE-9 M, 1×10EE-10 M, 1×10EE-11 M and 1×10EE-12 M and 1×10EE-13 M. The assay plate was incubated for 3 h in a 5% CO2 incubator at 37° C. The assay plate was removed from the incubator and allowed to stand at room temperature for 15 min. A 100 μl aliquot of steadylite plus reagent was added to each well of the assay plate (reagent is light sensitive). Each assay plate was covered with aluminum foil to protect it from light and shaken for 30 min at room temperature. Each assay plate was read in a Perkin Elmer TopCount NXT instrument. The data from the TopCount instrument was transferred to GraphPad Prism software. The software performed a non-linear regression (log(agonist) vs response-Variable slope (four parameter)). EC50 values were calculated by the software and reported in pM.

IC50 (human GLP-1 receptor [1]) | EC50 (human GLP-1 receptor [2]) | SMILES
0.9 nM | 0.003 nM | CC[C@H](C)[C@H](NC(=O)[C@H](Cc1ccccc1)NC(=O)[C@H](CCC(=O)O)NC(=O)[C@H](CCCNC(=N)N)NC(=O)[C@H](C)NC(=O)[C@H](C)NC(=O)[C@H](CCC(N)=O)NC(=O)[C@H](CCC(=O)O)NC(=O)[C@H](CCC(=O)O)NC(=O)[C@H](CC(C)C)NC(=O)[C@H](Cc1ccc(O)cc1)NC(=O)[C@H](CCCNC(=N)N)NC(=O)[C@H](CO)NC(=O)[C@H](Cc1ccc(O)cc1)NC(=O)[C@H](CC(=O)O)NC(=O)[C@H](CO)NC(=O)[C@@H](NC(=O)[C@H](Cc1ccccc1)NC(=O)[C@@H](NC(=O)CNC(=O)[C@H](Cc1c[nH]cn1)NC(=O)C1(NC(=O)CCc2c[nH]cn2)CCC1)[C@@H](C)O)[C@@H](C)O)C(=O)N[C@@H](C)C(=O)N[C@@H](Cc1c[nH]c2ccccc12)C(=O)N[C@@H](CC(C)C)C(=O)N[C@@H](CC(C)C)C(=O)N[C@@H](CCCNC(=N)N)C(=O)N[C@@H](CCCCNC(=O)CC[C@H](NC(=O)COCCOCCNC(=O)CC[C@H](NC(=O)COCCOCCNC(=O)CC[C@H](NC(=O)COCCOCCNC(=O)CC[C@H](NC(=O)CC[C@H](NC(=O)CCCCCCCCCCCCCCCCC(=O)O)C(=O)O)C(=O)O)C(=O)O)C(=O)O)C(=O)O)C(N)=O [Example 22, N^ε35-[(4S)-4-carboxy-4-[[2-[2-[2-[[(4S)-4-carboxy-4-[[2-[2-[2-[[(4S)-4-carboxy-4-[[2-[2-[2-[[(4S)-4-carboxy-4-[[(4S)-4-carboxy-4-(17-carboxyheptadecanoylamino)butanoyl]amino]butanoyl]amino]ethoxy]ethoxy]acetyl]amino]butanoyl]amino]ethoxy]ethoxy]acetyl]amino]butanoyl]amino]ethoxy]ethoxy]acetyl]amino]butanoyl]-[Imp7,Acb8,His9,Tyr16,Arg18,Glu22,Arg26,Leu33,Arg34,Lys35]-GLP-1-(7-35)-peptide amide] (Desaminohistidyl-[Ac4c]HGTFTSDYSRYLEEQAAREFIAWLLRK([γGlu-AEEA-γGlu-AEEA-γGlu-AEEA-γGlu-γGlu-C18 diacid])-NH2)
2.3 nM | 0.007 nM | CC[C@H](C)[C@H](NC(=O)[C@H](Cc1ccccc1)NC(=O)[C@H](CCC(=O)O)NC(=O)[C@H](CCCNC(=N)N)NC(=O)[C@H](C)NC(=O)[C@H](C)NC(=O)[C@H](CCC(N)=O)NC(=O)[C@H](CCCNC(=N)N)NC(=O)[C@H](CCC(=O)O)NC(=O)[C@H](CC(C)C)NC(=O)[C@H](Cc1ccc(O)cc1)NC(=O)[C@H](CCCCN)NC(=O)[C@H](CO)NC(=O)[C@H](Cc1ccc(O)cc1)NC(=O)[C@H](CC(=O)O)NC(=O)[C@H](CO)NC(=O)[C@@H](NC(=O)[C@H](Cc1ccccc1)NC(=O)[C@@H](NC(=O)CNC(=O)[C@H](Cc1c[nH]cn1)NC(=O)C1(NC(=O)CCc2c[nH]cn2)CCC1)[C@@H](C)O)[C@@H](C)O)C(=O)N[C@@H](C)C(=O)N[C@@H](Cc1c[nH]c2ccccc12)C(=O)N[C@@H](CC(C)C)C(=O)N[C@@H](CC(C)C)C(=O)N[C@@H](CCCCN)C(=O)N[C@@H](CCCCNC(=O)CC[C@H](NC(=O)COCCOCCNC(=O)CC[C@H](NC(=O)COCCOCCNC(=O)CC[C@H](NC(=O)COCCOCCNC(=O)CC[C@H](NC(=O)CC[C@H](NC(=O)CCCCCCCCCCCCCCCCC(=O)O)C(=O)O)C(=O)O)C(=O)O)C(=O)O)C(=O)O)C(N)=O [Example 23, N^ε35-[(4S)-4-carboxy-4-[[2-[2-[2-[[(4S)-4-carboxy-4-[[2-[2-[2-[[(4S)-4-carboxy-4-[[2-[2-[2-[[(4S)-4-carboxy-4-[[(4S)-4-carboxy-4-(17-carboxyheptadecanoylamino)butanoyl]amino]butanoyl]amino]ethoxy]ethoxy]acetyl]amino]butanoyl]amino]ethoxy]ethoxy]acetyl]amino]butanoyl]amino]ethoxy]ethoxy]acetyl]amino]butanoyl]-[Imp7,Acb8,His9,Tyr16,Lys18,Arg22,Arg26,Leu33,Lys35]-GLP-1-(7-35)-peptide amide] (Desaminohistidyl-[Ac4c]HGTFTSDYSKYLERQAAREFIAWLLKK([γGlu-AEEA-γGlu-AEEA-γGlu-AEEA-γGlu-γGlu-C18 diacid])-NH2)
0.4 nM | 0.005 nM | CC[C@H](C)[C@H](NC(=O)[C@H](Cc1ccccc1)NC(=O)[C@H](CCC(=O)O)NC(=O)[C@H](CCCNC(=N)N)NC(=O)[C@H](C)NC(=O)[C@H](C)NC(=O)[C@H](CCC(N)=O)NC(=O)[C@H](CCC(=O)O)NC(=O)[C@H](CCC(=O)O)NC(=O)[C@H](CC(C)C)NC(=O)[C@H](Cc1ccc(O)cc1)NC(=O)[C@H](CCCCN)NC(=O)[C@H](CO)NC(=O)[C@@H](NC(=O)[C@H](CC(=O)O)NC(=O)[C@H](CO)NC(=O)[C@@H](NC(=O)[C@H](Cc1ccccc1)NC(=O)[C@@H](NC(=O)CNC(=O)[C@H](Cc1c[nH]cn1)NC(=O)C(C)(C)NC(=O)CCc1c[nH]cn1)[C@@H](C)O)[C@@H](C)O)C(C)C)C(=O)N[C@@H](C)C(=O)N[C@@H](Cc1c[nH]c2ccccc12)C(=O)N[C@@H](CC(C)C)C(=O)N[C@@H](CC(C)C)C(=O)N[C@@H](CCCCNC(=O)CNC(=O)[C@H](CO)NC(=O)[C@H](CCC(=O)O)NC(=O)CNC(=O)[C@H](CO)NC(=O)CC[C@H](NC(=O)CC[C@H](NC(=O)CCCCCCCCCCCCCCCCCCC(=O)O)C(=O)O)C(=O)O)C(=O)N[C@H](C(N)=O)[C@@H](C)O [Example 30, N^ε34-[2-[[(2S)-2-[[(2S)-4-carboxy-2-[[2-[[(2S)-2-[[(4S)-4-carboxy-4-[[(4S)-4-carboxy-4-(19-carboxynonadecanoylamino)butanoyl]amino]butanoyl]amino]-3-hydroxypropanoyl]amino]acetyl]amino]butanoyl]amino]-3-hydroxypropanoyl]amino]acetyl]-[Imp7,Aib8,His9,Lys18,Glu22,Arg26,Leu33,Thr35]-GLP-1-(7-35)-peptide amide] (I: Desaminohistidyl-[Aib]HGTFTSDVSKYLEEQAAREFIAWLLKT-NH2 / II: {C20 diacid-γGlu-γGlu}-SGESG; amide I:27-II:C)

Source: patent US9988430B2, “Stable GLP-1 based GLP-1/glucagon receptor co-agonists” (Novo Nordisk A/S, priority 2014, dated 2018)
